Results on 12 compounds are retold here after patent publication US7135572B2 (CJ Corp, priority 2001, dated 2006).

In one test the target is T1, cyclooxygenase-1 (Homo sapiens, UniProt P23219).
T1 construct: The cultured U-937 (humane lymphoma cell, obtained from Korean cell line bank) was centrifuged to collect the pellet; endogenous in cells; host or cells: U-937 (human lymphoma cell line, Korean cell line bank)
Put plainly: Inhibition of cyclooxygenase-1 in U-937 cells (PGE2 quantitation). Type of test: cell-based. To be noted: U-937 cells. Here is the method: (§1) In order to investigate pharmacologically the selective inhibition activity against cyclooxygenase-2 enzyme, the inhibitive effects against cyclooxygenase-1 and cyclooxygenase-2 were measured by two methods as follows.
Then, the pellet was diluted with 1×HBSS(Hank's balanced salt solutin) at the concentration of 1×10^6 cells/ml, and 1 ml of them was transferred into each well of 12-well plates, and then dissolved with DMSO. 5μl of the diluted sample solution, and 5μl of DMSO vehicle were added therein and mixed, and the mixture was cultured at 37° C. in Co2 incubator for 15 minutes. Arachidonic acid as a substrate was dissolved in ethanol to prepare a stock solution with a concentration of 10 mM, followed by diluting with 1×HBSS to prepare the solution of 1 mM. 10 μl of 1 mM Arachidonic acid solution was added to each of the treated wells, and the mixture was cultured at 37° C. in CO2 incubator for 30 minutes. The cell solution of each well was collected in the centrifuge tube and was centrifuged at 4° C. for 5 minutes at 10,000 rpm. As PGE2 existed in the supernatant separated from collected cell, the concentration of PGE2 was quantitated by using monoclonal kit from Cayman Chemicals, and the concentration of samples and vehicle were compared to estimate the inhibition ratio (%) of each compound against cyclooxygenase-1. Ultimately, the inhibition effect against the cyclooxygenase-1 enzyme was obtained from the result.

The target in the next test is T2, cyclooxygenase-2 (Mus musculus, UniProt Q05769).
T2 construct: endogenous in cells; host or cells: Raw 264.7 (Korean cell line bank), aspirin-pretreated, induced with interferon gamma and LPS
T2 sequence (Q05769 18-604): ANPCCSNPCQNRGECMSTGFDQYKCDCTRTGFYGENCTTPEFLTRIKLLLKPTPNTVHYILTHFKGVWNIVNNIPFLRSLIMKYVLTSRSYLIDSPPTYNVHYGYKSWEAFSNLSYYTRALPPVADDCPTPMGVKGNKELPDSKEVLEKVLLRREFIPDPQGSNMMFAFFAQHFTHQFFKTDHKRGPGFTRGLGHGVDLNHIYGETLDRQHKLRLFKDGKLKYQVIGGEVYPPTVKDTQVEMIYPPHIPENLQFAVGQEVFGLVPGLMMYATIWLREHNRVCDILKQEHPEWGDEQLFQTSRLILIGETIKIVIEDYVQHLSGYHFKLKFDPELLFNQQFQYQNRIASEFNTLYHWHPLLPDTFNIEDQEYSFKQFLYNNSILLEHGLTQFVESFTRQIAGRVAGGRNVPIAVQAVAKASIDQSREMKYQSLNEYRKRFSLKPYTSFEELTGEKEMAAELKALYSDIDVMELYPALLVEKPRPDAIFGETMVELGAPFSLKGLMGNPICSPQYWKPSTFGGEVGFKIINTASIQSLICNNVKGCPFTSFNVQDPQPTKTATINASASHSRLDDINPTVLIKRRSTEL
Put plainly: Inhibition of cyclooxygenase-2 in Raw 264.7 cells treated with interferon γ and LPS (PGE2 EIA). Type of test: cell-based. The conditions noted are these: for Inhibitory effects of cyclooxygenase (COX): COX-2: Raw 264.7 cells; for selectivity of cyclooxygenase-2 compared with the comparative substance (in words): COX-2 versus COX-1. As to the method:
as §1
And then, each samples were replaced with new media and cultured for 30 minutes. In addition, the samples was treated with 100 units/ml of interferon Υ and 100 ng/ml of lipopolysaccharide(LPS), and cultured for 18 hours. Then, the media was transferred to other tubes and the PGE 2 was quantitated by using EIA kit from Cayman Chemicals.

T1 sequence (P23219 24-599): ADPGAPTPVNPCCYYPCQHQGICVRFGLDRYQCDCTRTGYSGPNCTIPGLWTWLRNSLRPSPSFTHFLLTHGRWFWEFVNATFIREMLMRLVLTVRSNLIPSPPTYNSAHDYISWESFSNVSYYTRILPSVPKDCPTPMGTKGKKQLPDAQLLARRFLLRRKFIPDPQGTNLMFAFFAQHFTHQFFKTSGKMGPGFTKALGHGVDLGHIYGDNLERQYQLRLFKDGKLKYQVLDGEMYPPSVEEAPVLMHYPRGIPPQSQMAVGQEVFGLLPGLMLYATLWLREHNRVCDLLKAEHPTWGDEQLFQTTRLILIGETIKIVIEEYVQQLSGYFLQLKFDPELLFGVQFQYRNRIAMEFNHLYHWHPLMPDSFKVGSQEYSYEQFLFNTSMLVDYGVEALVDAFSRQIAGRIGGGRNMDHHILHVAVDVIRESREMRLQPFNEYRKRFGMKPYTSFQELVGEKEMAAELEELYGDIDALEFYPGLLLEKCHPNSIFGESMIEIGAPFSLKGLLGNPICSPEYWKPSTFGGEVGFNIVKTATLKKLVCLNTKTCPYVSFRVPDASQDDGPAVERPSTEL

As to `Cc1nc(-c2ccccc2)n(-c2ccc(S(N)(=O)=O)cc2)n1` [Example 1, 4-(3-methyl-5-phenyl-[1,2,4]triazole-1-yl)-benzenesulfonamide], the “Inhibitory effects of cyclooxygenase (COX): COX-1” value (from here on “Inhibitory effects … COX-1”) on cyclooxygenase-1 (3 μM) is on record as 12.1 % inhibition; on cyclooxygenase-1 (10 μM), 25.9 % inhibition; at cyclooxygenase-1 (30 μM) it was 53.1 % inhibition. In addition, the “Inhibitory effects of cyclooxygenase (COX): COX-2” value (“Inhibitory effects … COX-2” for short) is 48.5 % inhibition at cyclooxygenase-2 (30 nM), 50.0 % inhibition on cyclooxygenase-2 (100 nM) and 81.4 % inhibition at cyclooxygenase-2 (300 nM).
Turning to `Cc1nc(-c2ccc(Br)cc2)n(-c2ccc(S(N)(=O)=O)cc2)n1` [Example 4, 4-[5-(4-bromo-phenyl)-3-methyl-[1,2,4]triazole-1-yl]-benzenesulfonamide], the “Inhibitory effects … COX-1” value at cyclooxygenase-1 (3 μM) is 85.6 % inhibition; at cyclooxygenase-1 (10 μM), 87.7 % inhibition; on cyclooxygenase-1 (30 μM), 91.1 % inhibition. Also, the “Inhibitory effects … COX-2” value was 64.2 % inhibition on cyclooxygenase-2 (30 nM), 99.0 % inhibition on cyclooxygenase-2 (100 nM) and 99.8 % inhibition at cyclooxygenase-2 (300 nM). Besides, the “selectivity of cyclooxygenase-2 compared with the comparative substance (in words)” value on cyclooxygenase-2 is “hardly different”.
In the case of `Cc1ccc(-c2nc(C)nn2-c2ccc(S(N)(=O)=O)cc2)cc1` [Example 5, 4-(3-methyl-5-p-toly-[1,2,4]triazole-1-yl)-benzenesulfonamide], the “Inhibitory effects … COX-1” value was determined as 48.6 % inhibition at cyclooxygenase-1 (3 μM), 61.1 % inhibition on cyclooxygenase-1 (10 μM) and 79.7 % inhibition on cyclooxygenase-1 (30 μM). The “Inhibitory effects … COX-2” value is given as 45.3 % inhibition at cyclooxygenase-2 (30 nM), 53.3 % inhibition at cyclooxygenase-2 (100 nM) and 75.2 % inhibition on cyclooxygenase-2 (300 nM).
Regarding `Cc1nc(-c2ccc(Cl)cc2)n(-c2ccc(S(N)(=O)=O)cn2)n1` [Example 16, 6-[5-(4-chloro-phenyl)-3-methyl-[1,2,4]triazole-1-yl]-pyridine-3-sulfonic acid amide], the “Inhibitory effects … COX-1” value on cyclooxygenase-1 (3 μM) is 24.5 % inhibition; on cyclooxygenase-1 (10 μM), 43.2 % inhibition; on cyclooxygenase-1 (30 μM) it was 55.1 % inhibition. The results for the “Inhibitory effects … COX-2” value at cyclooxygenase-2 (30 nM), on cyclooxygenase-2 (100 nM) and at cyclooxygenase-2 (300 nM) were 32.4 % inhibition, 34.1 % inhibition and 85.2 % inhibition, respectively.
As to `Cc1nc(-c2ccc(F)cc2)n(-c2ccc(S(N)(=O)=O)cn2)n1` [Example 15, 6-[5-(4-fluoro-phenyl)-3-methyl-[1,2,4]triazole-1-yl]-pyridine-3-sulfonic acid amide], the “Inhibitory effects … COX-1” value turned out to be 35.7 % inhibition on cyclooxygenase-1 (3 μM), 41.0 % inhibition on cyclooxygenase-1 (10 μM) and 46.9 % inhibition at cyclooxygenase-1 (30 μM). Also, the “Inhibitory effects … COX-2” value at cyclooxygenase-2 (30 nM) was 27.1 % inhibition; on cyclooxygenase-2 (100 nM), 28.8 % inhibition; on cyclooxygenase-2 (300 nM), 38.9 % inhibition.
Turning to `Cc1nc(-c2cccc(Br)c2)n(-c2ccc(S(N)(=O)=O)cc2)n1` [Example 9, 4-[5-(3-bromo-phenyl)-3-methyl-[1,2,4]triazole-1-yl]-benzenesulfonamide], the “Inhibitory effects … COX-1” value at cyclooxygenase-1 (3 μM) was found to be 78.7 % inhibition; at cyclooxygenase-1 (10 μM), 81.9 % inhibition; at cyclooxygenase-1 (30 μM), 89.5 % inhibition. For the same compound, the “Inhibitory effects … COX-2” value is given as 66.5 % inhibition on cyclooxygenase-2 (30 nM), 89.2 % inhibition at cyclooxygenase-2 (100 nM) and 99.2 % inhibition at cyclooxygenase-2 (300 nM). The “selectivity of cyclooxygenase-2 compared with the comparative substance (in words)” value on cyclooxygenase-2 is “hardly different”.
Consider `Cc1nc(-c2ccccc2)n(-c2ccc(S(C)(=O)=O)cc2)n1` [Example 24, 1-(4-methanesulfony-phenyl)-3-methyl-5-phenyl-1H-[1,2,4]triazole], for which the “Inhibitory effects … COX-1” value on cyclooxygenase-1 (3 μM) turned out to be 1.3 % inhibition; at cyclooxygenase-1 (10 μM), 40.8 % inhibition; at cyclooxygenase-1 (30 μM), 71.5 % inhibition. Also, the “Inhibitory effects … COX-2” value on cyclooxygenase-2 (30 nM) is reported as 29.7 % inhibition; on cyclooxygenase-2 (100 nM) it was 38.0 % inhibition; at cyclooxygenase-2 (300 nM) it was 64.4 % inhibition.
For `Cc1nc(-c2ccc(F)cc2)n(-c2ccc(S(N)(=O)=O)cc2)n1` [Example 2, 4-[5-(4-fluoro-phenyl)-3-methyl-[1,2,4]triazole-1-yl]-benzenesulfonamide], the “Inhibitory effects … COX-1” value is 36.9 % inhibition at cyclooxygenase-1 (3 μM), 53.4 % inhibition at cyclooxygenase-1 (10 μM) and 67.8 % inhibition on cyclooxygenase-1 (30 μM). Further, the “Inhibitory effects … COX-2” value at cyclooxygenase-2 (30 nM) amounted to 28.8 % inhibition; at cyclooxygenase-2 (100 nM), 34.4 % inhibition; on cyclooxygenase-2 (300 nM) it was 45.7 % inhibition.
With `Cc1nc(-c2ccc(Cl)cc2)n(-c2ccc(S(N)(=O)=O)cc2)n1` [Example 3, 4-[5-(4-chloro-phenyl)-3-methyl-[1,2,4]triazole-1-yl]-benzenesulfonamide], the figures for the “Inhibitory effects … COX-1” value at cyclooxygenase-1 (3 μM), at cyclooxygenase-1 (10 μM) and on cyclooxygenase-1 (30 μM) were 0.1 % inhibition, 13.8 % inhibition and 29.7 % inhibition, respectively. Moreover, the “Inhibitory effects … COX-2” value on cyclooxygenase-2 (30 nM) came out at 40.0 % inhibition; at cyclooxygenase-2 (100 nM), 74.1 % inhibition; at cyclooxygenase-2 (300 nM) it was 82.9 % inhibition.
For `COc1ccccc1-c1nc(C)nn1-c1ccc(S(N)(=O)=O)cc1` [Example 11, 4-[5-(2-methoxy-phenyl)-3-methyl-[1,2,4]triazole-1-yl]-benzenesulfonamide], the “Inhibitory effects … COX-1” value on cyclooxygenase-1 (3 μM) came to 54.0 % inhibition; at cyclooxygenase-1 (10 μM) it was 61.3 % inhibition; on cyclooxygenase-1 (30 μM), 67.2 % inhibition. In addition, the results for the “Inhibitory effects … COX-2” value on cyclooxygenase-2 (30 nM), on cyclooxygenase-2 (100 nM) and at cyclooxygenase-2 (300 nM) were 25.0 % inhibition, 25.2 % inhibition and 37.7 % inhibition, respectively.
Turning to `Cc1nc(-c2cccc(F)c2)n(-c2ccc(S(N)(=O)=O)cc2)n1` [Example 7, 4-[5-(3-fluoro-phenyl)-3-methyl-[1,2,4]triazole-1-yl]-benzenesulfonamide], the “Inhibitory effects … COX-1” value on cyclooxygenase-1 (3 μM) turned out to be 21.1 % inhibition; on cyclooxygenase-1 (10 μM), 24.4 % inhibition; on cyclooxygenase-1 (30 μM), 28.1 % inhibition. Moreover, the “Inhibitory effects … COX-2” value at cyclooxygenase-2 (30 nM) came to 54.3 % inhibition; at cyclooxygenase-2 (100 nM), 55.0 % inhibition; on cyclooxygenase-2 (300 nM) it was 55.3 % inhibition.
As for `Cc1nc(-c2cccc(F)c2)n(-c2ccc(S(N)(=O)=O)cn2)n1` [Example 20, 6-[5-(3-fluoro-phenyl)-3-mehtyl-[1,2,4]triazole-1-yl]-pyridine-3-sulfonic acid amide], the figures for the “Inhibitory effects … COX-1” value on cyclooxygenase-1 (3 μM), on cyclooxygenase-1 (10 μM) and at cyclooxygenase-1 (30 μM) were 27.2 % inhibition, 31.6 % inhibition and 34.7 % inhibition, respectively. Further, the entries for the “Inhibitory effects … COX-2” value on cyclooxygenase-2 (30 nM), on cyclooxygenase-2 (100 nM) and at cyclooxygenase-2 (300 nM) were 30.2 % inhibition, 57.8 % inhibition and 74.0 % inhibition, respectively.
